Test results from the Kinase Knowledgebase extract (Sharma et al. 2016).

Each molecule was assayed against CDK2 (UniProt P24941) (assay: Enzyme Assay).

Row | Structure (SMILES) | IC50 [µM]
1 | CS(=O)(=O)Nc1cccc(Nc2cc(-c3cccc(N)c3)ncn2)c1 | 1 to 10
2 | Cc1ccc(Nc2cc(-c3cccc(N)c3)ncn2)cc1NS(=O)(=O)c1cn(C)cn1 | 0.001 to 1
3 | COc1ccccc1-c1cc(Nc2ccc(C(=O)Nc3ccc(O)cc3)cc2)ncn1 | 1 to 10
4 | COc1ccccc1-c1cc(Nc2ccc(NC(=O)C(C)(C)C)cc2)ncn1 | 1 to 10
5 | Nc1ccc(C(=O)Nc2ccc(Nc3cc(-c4ccccc4O)ncn3)cc2)cc1 | 10 to 250
6 | COc1ccccc1-c1cc(Nc2ccc(NC(=O)C3CCCCC3)cc2)ncn1 | 10 to 250
7 | CC(C)(C)C(=O)Nc1ccc(Nc2cc(-c3ccccc3OCc3ccccc3)ncn2)cc1 | 1 to 10
8 | COc1ccc(C(C)C)cc1-c1cc(Nc2ccc(NC(=O)c3ccc(N)cc3)cc2)ncn1 | 10 to 250
9 | COc1ccccc1-c1cc(Nc2ccc(NC(=O)C(c3ccccc3)N(C)C)cc2)ncn1 (configuration not stated) | 1 to 10
10 | COc1ccccc1-c1cc(Nc2ccc(NC(=O)C(N)c3ccc4ccccc4c3)cc2)ncn1 (configuration not stated) | 1 to 10
11 | Cc1ccc(Nc2cc(-c3cccc(NS(C)(=O)=O)c3)ncn2)cc1CS(N)(=O)=O | 0.001 to 1
12 | COc1cccc(-c2cc(Nc3ccc(NC(=O)[C@@H]4CCCCN4)cc3)ncn2)c1OC | 10 to 250
13 | COc1ccccc1-c1cc(Nc2ccc(NC(=O)NCc3ccc(C)cc3)cc2)ncn1 | 10 to 250
14 | CCc1ccccc1-c1cc(Nc2ccc(NC(=O)C(C)(C)C)cc2)ncn1 | 1 to 10
15 | c1ccc(COc2ccccc2-c2cc(NCCc3ccncc3)ncn2)cc1 | 1 to 10
16 | COc1cccc(-c2cc(Nc3ccc(NS(=O)(=O)c4ccc(C)cc4)cc3)ncn2)c1 | 10 to 250
17 | COc1ccccc1-c1cc(NCCc2ccncc2)ncn1 | 10 to 250
18 | COc1ccccc1-c1cc(N(C)c2ccc(N)cc2)ncn1 | 1 to 10
19 | COC(=O)CN(c1ccc(Nc2cc(-c3ccc(O)cc3)ncn2)cc1)S(=O)(=O)c1ccc(C)cc1 | 0.001 to 1
20 | CC(C)(C)C(=O)Nc1ccc(Nc2cc(-c3cccnc3)ncn2)cc1 | 10 to 250
21 | CCCCNS(=O)(=O)c1cccc(Nc2cc(-c3ccccc3OC)ncn2)c1 | 1 to 10

Row | Structure (SMILES) | IC50 [µM]
22 | Cc1ccc(S(=O)(=O)Nc2ccc(Nc3cc(-c4ccc(O)cc4)ncn3)cc2)cc1 | 0.001 to 1
23 | COc1ccccc1-c1cc(Nc2ccc(NS(=O)(=O)C(C)C)cc2)ncn1 | 0.001 to 1
24 | O=C(Nc1ccc(Nc2cc(-c3ccc(Oc4ccccc4)cc3)ncn2)cc1)[C@@H]1CCCCN1 | 1 to 10
25 | CC(=O)Nc1cccc(-c2cc(Nc3ccc(C)c(NS(C)(=O)=O)c3)ncn2)c1 | 1 to 10
26 | Cc1ccc(Nc2cc(-c3ccccc3O)ncn2)cc1NS(C)(=O)=O | 0.001 to 1
27 | Nc1cccc(-c2cc(Nc3ccc(S(N)(=O)=O)cc3)ncn2)c1 | 0.001 to 1
28 | CC[C@H](C)[C@H](N)C(=O)Nc1ccc(Nc2cc(-c3ccccc3OC)ncn2)cc1 | 1 to 10
29 | CC(C)(C)C(=O)Nc1ccc(Nc2cc(NCCN)ncn2)cc1 | 10 to 250
30 | COc1cccc(OC)c1-c1cc(Nc2ccc(NC(=O)c3ccc(N)cc3)cc2)ncn1 | 10 to 250
31 | COc1ccc(-c2cc(Nc3ccc(C(=O)N[C@@H]4CCCC[C@H]4N)cc3)ncn2)cc1.COc1ccc(-c2cc(Nc3ccc(C(=O)N[C@H]4CCCC[C@@H]4N)cc3)ncn2)cc1 | 1 to 10
32 | COC(=O)CN(c1ccc(Nc2cc(-c3ccccc3OC)ncn2)cc1)S(=O)(=O)c1ccc(C)cc1 | 1 to 10
33 | COc1ccccc1-c1cc(Nc2ccc(NS(=O)(=O)c3ccc(-c4ccccc4)cc3)cc2)ncn1 | 1 to 10
34 | CN1CCN(c2cc(Nc3ccc(NC(=O)C(C)(C)C)cc3)ncn2)CC1 | 10 to 250
35 | Cc1ccc(Nc2cc(-c3cccc(C=O)c3)ncn2)cc1NS(C)(=O)=O | 1 to 10
36 | Nc1ccc(C(=O)Nc2ccc(Nc3cc(-c4cccs4)ncn3)cc2)cc1 | 10 to 250
37 | COc1ccccc1-c1cc(Nc2ccc(C(=O)Nc3ccc(C(C)C)cc3)cc2)ncn1 | 10 to 250
38 | COc1ccc(-c2cc(Nc3ccc(NC(=O)[C@@H]4CCCCN4)cc3)ncn2)c(OC)c1 | 1 to 10
39 | Cc1ccc(Nc2cc(-c3cccc(C(F)(F)F)c3)ncn2)cc1NS(C)(=O)=O | 10 to 250
40 | COc1ccccc1-c1cc(Nc2ccc(NC(=O)NC(C)(C)C)cc2)ncn1 | 1 to 10
41 | Cc1ccc(Nc2cc(-c3cccc(C#N)c3)ncn2)cc1NS(C)(=O)=O | 1 to 10
42 | COc1ccccc1-c1cc(Nc2ccc(NC(=O)c3ccncc3)cc2)ncn1 | 10 to 250

Row | Structure (SMILES) | IC50 [µM]
43 | Nc1ccc(C(=O)Nc2ccc(Nc3cc(NCCO)ncn3)cc2)cc1 | 10 to 250
44 | COc1ccccc1-c1cc(Nc2ccc(NS(=O)(=O)c3ccc(C)cc3)cc2)ncn1 | 0.001 to 1
45 | COc1ccccc1-c1cc(Nc2ccc(C(=O)Nc3ccc(C(C)(C)C)cc3)cc2)ncn1 | 10 to 250
46 | COc1ccc(OC)c(-c2cc(Nc3ccc(NC(=O)c4ccc(N)cc4)cc3)ncn2)c1 | 10 to 250
47 | COc1ccc(-c2cc(Nc3ccc(NS(=O)(=O)c4ccc(C)cc4)cc3)ncn2)cc1 | 1 to 10
48 | COc1ccccc1-c1cc(Nc2ccc(NC(=O)c3ccccc3N)cc2)ncn1 | 1 to 10
49 | COc1ccccc1-c1cc(Nc2ccc(-c3nc4ccccc4[nH]3)cc2)ncn1 | 0.001 to 1
50 | CC(C)(C)C(=O)Nc1ccc(Nc2cc(-c3ccccc3C(F)(F)F)ncn2)cc1 | 10 to 250
51 | Cc1ccc(Nc2cc(-c3cccc(N(C)C)c3)ncn2)cc1NS(C)(=O)=O | 1 to 10
52 | COc1cccc(-c2cc(Nc3ccc(NC(=O)c4ccc(N)cc4)cc3)ncn2)c1OC | 1 to 10
53 | COc1ccccc1-c1cc(Nc2ccc(N)cc2C)ncn1 | 1 to 10
54 | CC(C)(C)C(=O)Nc1ccc(Nc2cc(-c3ccccc3F)ncn2)cc1 | 10 to 250
55 | COc1ccccc1-c1cc(Nc2cccc(C(N)=O)c2)ncn1 | 0.001 to 1
56 | Nc1cccc(-c2cc(NCCc3ccncc3)ncn2)c1 | 1 to 10
57 | COc1ccc(-c2cc(Nc3cccc(S(N)(=O)=O)c3)ncn2)cc1 | 0.001 to 1
58 | COc1ccccc1-c1cc(Nc2ccc(C(N)=O)cc2)ncn1 | 0.001 to 1
59 | COc1ccccc1-c1cc(Nc2ccc(NC(=O)c3ccc(N)cc3)cc2)nc(N)n1 | 10 to 250
60 | CC(C)Oc1ccccc1-c1cc(Nc2ccc(C(=O)N[C@@H]3CCCC[C@H]3N)cc2)ncn1.CC(C)Oc1ccccc1-c1cc(Nc2ccc(C(=O)N[C@H]3CCCC[C@@H]3N)cc2)ncn1 | 1 to 10
61 | Nc1ccc(C(=O)Nc2ccc(Nc3cc(-c4ccccc4)ncn3)cc2)cc1 | 10 to 250

Further lines, results first:

Row | IC50 [µM] | Structure (SMILES)
62 | 1 to 10 | COc1ccccc1-c1cc(Nc2ccc(C(=O)NC3CCCCC3)cc2)ncn1
63 | 10 to 250 | Nc1ccc(C(=O)Nc2ccc(Nc3cc(Cl)ncn3)cc2)cc1
64 | 1 to 10 | COC(=O)/C=C/c1cccc(-c2cc(Nc3ccc(C)c(NS(C)(=O)=O)c3)ncn2)c1
65 | 10 to 250 | CN1CCC(Nc2cc(Nc3ccc(NC(=O)C(C)(C)C)cc3)ncn2)CC1
66 | 0.001 to 1 | COc1ccccc1-c1cc(Nc2cccc(S(N)(=O)=O)c2)ncn1
67 | 1 to 10 | Cc1ccc(S(=O)(=O)Nc2ccc(Nc3cc(Cl)ncn3)cc2)cc1
68 | 10 to 250 | COc1ccccc1-c1cc(Nc2ccc(NC(=O)C3(NC(=O)OC(C)(C)C)CCCC3)cc2)ncn1
69 | 1 to 10 | COc1ccccc1-c1cc(Nc2ccc(NC(=O)[C@@H]3CCN3)cc2)ncn1
70 | 1 to 10 | COc1ccccc1-c1cc(Nc2ccc(NC(=O)C3CCN(C)CC3)cc2)ncn1
71 | 10 to 250 | COc1ccccc1-c1cc(Nc2ccc(NC(=O)c3nc4ccccc4s3)cc2)ncn1
72 | 1 to 10 | COc1ccccc1-c1cc(Nc2ccc(NC(=O)[C@@H]3CCCCN3C(=O)OC(C)(C)C)cc2)ncn1
73 | 1 to 10 | Nc1ccc(C(=O)Nc2ccc(Nc3cc(-c4ccc(O)cc4)ncn3)cc2)cc1
74 | 1 to 10 | Cc1ccc(Nc2cc(-c3cncnc3)ncn2)cc1NS(C)(=O)=O
75 | 1 to 10 | COc1cccc(-c2cc(Nc3ccc(C)c(NS(C)(=O)=O)c3)ncn2)c1
76 | 10 to 250 | CC(C)(C)C(=O)Nc1ccc(Nc2cc(NCCCO)ncn2)cc1
77 | 1 to 10 | CS(=O)(=O)Nc1cc(Nc2cc(-c3cccc(N)c3)ncn2)ccc1OCc1ccccc1
78 | 10 to 250 | Nc1ccc(C(=O)Nc2ccc(Nc3cc(-c4ccncc4)ncn3)cc2)cc1
79 | 1 to 10 | COc1ccccc1-c1cc(Nc2ccc(NC(=O)c3ccc4c(c3)OCO4)cc2)ncn1
80 | 10 to 250 | COc1ccccc1-c1cc(Nc2ccc(NC(=O)C(c3ccccc3)C(C)C)cc2)ncn1 (configuration not stated)
81 | 10 to 250 | COc1ccc(-c2cc(NCCc3ccncc3)ncn2)cc1
82 | 1 to 10 | COc1ccccc1-c1cc(Nc2ccc(C(=O)N[C@@H]3CCCC[C@H]3O)cc2)ncn1.COc1ccccc1-c1cc(Nc2ccc(C(=O)N[C@H]3CCCC[C@@H]3O)cc2)ncn1

Row | IC50 [µM] | Structure (SMILES)
83 | 1 to 10 | COc1ncccc1-c1cc(Nc2ccc(C)c(NS(C)(=O)=O)c2)ncn1
84 | 0.001 to 1 | COc1ccc(-c2cc(Nc3ccc(C)c(NS(C)(=O)=O)c3)ncn2)cc1
85 | 10 to 250 | COc1ccccc1-c1cc(Nc2ccc(NC(=O)c3ccc4ccccc4n3)cc2)ncn1
86 | 1 to 10 | COc1ccccc1-c1cc(Nc2ccc(NC(=O)CN(C)C)cc2)ncn1
87 | 10 to 250 | Nc1ccc(C(=O)Nc2ccc(Nc3cc(NCC4CCCCC4)ncn3)cc2)cc1
88 | 10 to 250 | Nc1ccc(C(=O)Nc2ccc(Nc3cc(/C=C/c4ccccc4)ncn3)cc2)cc1
89 | 10 to 250 | COc1ccccc1-c1cc(Nc2ccc(NC(=O)C34CC5CC(CC(C5)C3)C4)cc2)ncn1
90 | 1 to 10 | COc1ccccc1-c1cc(Nc2ccc(NC(=O)[C@@H](N)C(C)C)cc2)ncn1
91 | 1 to 10 | COc1ccccc1-c1cc(Nc2cccc(NC(=O)C(C)(C)C)c2)ncn1
92 | 10 to 250 | COc1ccc(Cl)cc1-c1cc(Nc2ccc(NC(=O)c3ccc(N)cc3)cc2)ncn1
93 | 10 to 250 | COc1ccccc1-c1cc(Nc2ccc(-c3nc4ccccc4o3)cc2)ncn1
94 | 10 to 250 | COc1ccccc1-c1cc(Nc2ccc(NC(=O)C3CC4CCC3C4)cc2)ncn1 (configuration not stated)
95 | 1 to 10 | CSc1ccccc1-c1cc(Nc2ccc(NC(=O)[C@@H]3CCCCN3)cc2)ncn1
96 | 10 to 250 | C=Cc1ccccc1-c1cc(Nc2ccc(NC(=O)C(C)(C)C)cc2)ncn1
97 | 1 to 10 | CC(C)Oc1ccccc1-c1cc(Nc2ccc(NC(=O)[C@@H]3CCCCN3)cc2)ncn1
98 | 0.001 to 1 | Cc1ccc(Nc2cc(-c3cccc(O)c3)ncn2)cc1NS(C)(=O)=O
99 | 10 to 250 | CC(C)(C)C(=O)Nc1ccc(Nc2cc(Cl)ncn2)cc1
100 | 1 to 10 | COc1ccccc1-c1cc(Nc2ccc(NC(=O)c3ccc(N)cc3)cc2)ncn1
101 | 1 to 10 | COc1ccc(-c2cc(Nc3ccc(NC(=O)c4ccc(N)cc4)cc3)ncn2)cc1
102 | 1 to 10 | COc1ccccc1-c1cc(Nc2ccc(NC(=O)CC3CCCCN3C(=O)OC(C)(C)C)cc2)ncn1 (configuration not stated)
